Assay results: PubChem BioAssay AID179 (DTP/NCI, 2004)
Calls of active or inactive are those of the source.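 How the source made its calls: active means compounds giving half or more protection of infected cells from virus-caused growth loss, again on retest; inactive means the rest.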

Tested on: CEM cells HIV-1 protection, formazan growth assay
Assay: NCI AIDS Antiviral Assay
Settings: for IC50: measured here: growth of uninfected CEM cells
How it was run: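 Five concentrations of each compound were applied to infected and uninfected human CEM cells. Protection from HIV-1 was judged from growth measured with a soluble formazan assay.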

Structure (SMILES) | EC50 | IC50 | outcome
COc1ccc(Cl)c(CCCCCCCC(=O)O)c1 | > 200 µM | > 200 µM | –
COc1cc(=O)oc2c3c(ccc12)OC(C)(C)[C@H](OC(=O)C12CCC(C)(C(=O)O1)C2(C)C)[C@@H]3OC(=O)C12CCC(C)(C(=O)O1)C2(C)C (some centres undefined) | 0.257 µM | 51.3 µM | –
O=S1(=O)CCCS(=O)(=O)C1CC1S(=O)(=O)CCCS1(=O)=O | > 245 µM | > 245 µM | –
CCOC(=O)/C(=C/c1cccc2ccccc12)P(=O)(OCC)OCC | > 257 µM | 17 µM | –
CN(C)CC1CCCC(CN(C)C)C1O (centres undefined) | > 871 µM | > 871 µM | –
CCOC(=O)C1=C(C)N(NC(=O)c2ccccc2)C2(O)CCCC12C(=O)OCC (centres undefined) | > 447 µM | 245 µM | –
C=CCn1nnc2ccccc2c1=O | > 692 µM | > 692 µM | –
CCN(CC)CC(C)Nc1cc(C)nc2c1ccc1c2ccc2c(NC(C)CN(CC)CC)cc(C)nc21 (centres undefined) | > 380 µM | 234 µM | –
O=C(Nc1nc2ccc([N+](=O)[O-])cc2s1)C(=O)C(C1OC(=O)c2ccccc21)[N+](=O)[O-] (centres undefined) | > 81.3 µM | 51.3 µM | –
COCCNC(=O)C1C(=O)C(=O)N(CCOC)C1=O (centres undefined) | – | – | inactive
CC(=O)Nc1ccc(-c2nnc(SCC(=O)Nc3ccccc3)o2)cc1 | > 37.2 µM | 20.9 µM | –
N#C/C(=C\N1CC(=O)NC1=S)C(=O)c1ccc2ccccc2c1 | > 200 µM | 158 µM | –
C=C1C(=O)O[C@@H]2C[C@@H](C)[C@@H]3C=CC(=O)[C@@]3(C)[C@@H](O)[C@H]12 | > 9.55 µM | 0.513 µM | –
O=C(O)c1c(Br)c(Br)c(Br)c(Br)c1-c1c2ccc(=O)cc-2oc2cc(O)ccc12 | > 200 µM | 28.2 µM | –
C1CC[N-]CC1.Oc1ccccc1C=NCCN=Cc1ccccc1O.[Co] | > 200 µM | 15.5 µM | –
CC(=O)OCC12CCC(C)=CC1OC1C(O)C(OC(C)=O)C2(C)C12CO2 (centres undefined) | > 3.39 µM | 0.00331 µM | –
CC(C)(C)C=C=C(C(C)(C)C)P(=O)(O)O | > 200 µM | > 200 µM | –
O=C1NC2C(O)CCCCC2C12CCCCC2 (centres undefined) | – | – | inactive
Cc1nn(C)c2c1C(=O)N(C)CC(=O)N2C | > 200 µM | > 200 µM | –
O=C(/C=C/c1cccs1)c1ccccc1Cl | > 200 µM | 11.2 µM | –
CC(=O)Nc1nc(Cl)cc(NCC2(CO)CCC2)n1 | > 200 µM | > 200 µM | –
O=C1CSC(c2ccc([N+](=O)[O-])cc2)N1c1ccc(-c2ccc(-n3c(-c4ccccc4)nc4ccccc4c3=O)cc2)cc1 (centres undefined) | > 200 µM | 39.8 µM | –

Structure (SMILES) | EC50 | IC50 | outcome
CC(C)=CCCc1c(C)ccc2c1C(=O)C(=O)C(C(C)C)=C2 | > 60.3 µM | 4.47 µM | –
Cc1cn(C2CC(NO)C(CO[Si](C)(C)C(C)(C)C)O2)c(=O)[nH]c1=O (centres undefined) | > 200 µM | 126 µM | –
CCOC(=O)C1(C/C=C(/C)Cl)CCCC1=O (centres undefined) | > 204 µM | > 204 µM | –
CNCC(=O)c1ccc(O)c(O)c1 | > 200 µM | > 200 µM | –
C=C(C)C#CC(O)(C(=O)OC1CCN(C)CC1)C(C)C (centres undefined) | > 200 µM | > 200 µM | –
CC(C(=O)O)n1[se]c2ccccc2c1=O (centres undefined) | 12.6 µM | 120 µM | –
O=C(/C=C/c1ccccc1O)c1cccc2ccccc12 | 93.3 µM | 95.5 µM | –
O=S(=O)(O)CCC(O)S(=O)(=O)O (centres undefined) | > 200 µM | 120 µM | –
ClC1=C(Cl)C(Cl)(Cl)SS1 | > 200 µM | 33.1 µM | –
Cn1nc(-c2ccccc2)c(C(=O)/C=C/c2ccc(F)cc2)c(N2CCCCC2)c1=O | > 18.6 µM | > 18.6 µM | –
Cc1ccc2ccc3ccc(C)nc3c2n1 | > 12 µM | 0.24 µM | –
O=c1[nH]nc(NCCc2ccccc2)c2nnn(Cc3ccccc3)c12 | > 200 µM | > 200 µM | –
COc1cccc(C2CCCC(C#N)C2=N)c1OC (centres undefined) | > 200 µM | 126 µM | –
O=C1N[C@@H]2CCCC[C@@H]2C12CCCCC2 | – | – | inactive
C/C(=N\NC(=O)CC(=O)N(C(=O)c1ccccc1Cl)c1ccc(C)cc1)c1ccc(Cl)cc1 | > 14.1 µM | > 14.1 µM | –
N#Cc1c(O)c(N=Nc2ccc(Cl)cc2)c(=O)n2c1[nH]c1ccccc12 | > 200 µM | 53.7 µM | –
COc1cc2c(cc1OC)C(C#N)N(C(=O)c1ccccc1)C=C2OC(=O)c1ccccc1 (centres undefined) | – | – | inactive
CCOC(=O)/C(=C\c1ccc(F)cc1)P(=O)(OCC)OCC | > 759 µM | 15.1 µM | –
CC1(CO)CCCC2(C)C1CCC1CC3C=CC12C1C(=O)OC(=O)C31 (centres undefined) | > 200 µM | 83.2 µM | –
COc1ccc2nc3cc(Cl)ccc3c(SCC(=O)Nc3ccccc3-c3ccccc3NC(=O)CSc3c4ccc(Cl)cc4nc4ccc(OC)cc34)c2c1 | > 8.91 µM | > 8.91 µM | –
O=c1[nH][nH]c(=O)c2ncccc12 | > 200 µM | > 200 µM | –
S=c1s[nH]c2c1CCC2 | > 107 µM | 77.6 µM | –
